The values that follow are results of earlier work, collected in US8343565B2, “Method for producing grape extract with high ORAC value and grape extract so produced” (Ethical Naturals, Inc., priority 2008, dated 2013).

The conditions of the data set: exemplary ORAC scores listed in the background.

On to `O=C1O[C@H]([C@@H](O)CO)C(O)=C1O` [vitamin C], for which the “ORAC scores for common vegetables and fruits” value was 5,000 μmol TE/g.
As for vitamin E, the “ORAC scores for common vegetables and fruits” value is 1,200 μmol TE/g.
